# From patent US20230190761A1, “METHYLENE BLUE STABILIZED MRNA COMPOSITIONS” (ModernaTX, Inc., priority 2020, published 2023)
# Structures can show the parent of a compound that is named as a salt.
# What was measured:
# Type in all cases: physicochemical
# [1] = system: mRNA within LNP formulations; test: Screen of molecular dyes on mRNA stability within LNP formulations (RP-HPLC); settings: for Main Peak Purity after 4 days at 40° C. (%): 2 mM dye in mRNA-LNP, RP-HPLC, no value (—) = physically unstable, no reliable chromatographic result, interpreted as destabilizing; for stabilization effect on mRNA in LNP / Difference relative to No Dye: 2 mM dye, 4 days at 40° C.; for Difference relative to No Dye: main peak purity, ±4% interpreted as significant
# Procedure: This example discusses the effects of various dye molecules on mRNA stability within LNP formulations. To evaluate the potential stabilization effects of dyes, LNP compositions were prepared containing 2 mM of one of 25 dyes. After incubation for 4 days at 40° C., main peak mRNA purity was measured by RP-HPLC. Variance within this study was estimated from three independent sample replicates with no dye (Sample IDs D0a, D0b and D0c as shown in Table 4) or with 2 mM methylene blue (Sample IDs D1a, D1b and D1c as shown in Table 4). […] The main peak purity measured in each mRNA-LNP formulation, as well as its difference relative to the no dye controls is shown in Table 4. Positive differences relative to no dye represent improvements in mRNA stability, and negative differences represent worsened mRNA stability.
# [2] = system: lipid nanoparticles (LNP); test: Permeation of phenothiazinium dyes into LNP and binding to encapsulated mRNA; settings: optical spectroscopic studies, Cryo-EM, DLS, isothermal titration calorimetry
# Source text: This example describes phenothiazinium dyes which interact with mRNA and their impact on LNP formulations. […] These interpretations were made based on extensive optical spectroscopic studies, Cryo-EM, dynamic light scattering (DLS) and isothermal titration calorimetry studies.
# mRNA-LNP = test: Conventional antioxidants versus methylene blue on mRNA-LNP stability; settings: 2 mM KDS, 5 mM KDS or 5 mM methionine, presence or absence of 2 mM methylene blue
# Procedure: This example discusses the effects of conventional pharmaceutical antioxidants on mRNA stability. To evaluate the effects conventional pharmaceutical antioxidants might have on mRNA stability relative to methylene blue, a direct comparative study was performed between methionine, potassium metabisulfite (KDS) and methylene blue. mRNA purity was measured after incubation of mRNA-LNP compositions with no additive, or with 2 mM KDS, 5 mM KDS, or 5 mM methionine, in the presence or absence of 2 mM methylene blue.
Main Peak Purity after 4 days at 40° C. (%) [1],Difference relative to No Dye [1],Compound,stabilization effect on mRNA in LNP [1],permeation of lipid nanoparticles and binding to encapsulated mRNA [2],stabilization effect on mRNA purity (mRNA-LNP)
89.46%,14%,Leucomethylene Blue (mesylate),stabilization effects similar to that of methylene blue,–,–
68.68%,−6%,CN(C)c1ccc2cc3ccc(=[N+](C)C)cc-3oc2c1.[Cl-] [Pyronin Y],–,–,–
74.66%,0%,Cc1cc2nc3ccc(N(C)C)cc3[s+]c2cc1N [Toluidine Blue O],–,–,–
90.36%,15%,CN(C)c1ccc2nc3ccc(N)cc3[s+]c2c1 [Azure A chloride],stabilization effects similar to that of methylene blue,can permeate lipid nanoparticles (LNP) and bind to encapsulated mRNA without altering the gross structure of the LNP,–
68.61%,−6%,CCNc1cc2[s+]c3cc(NCC)c(C)cc3nc2cc1C [New methylene blue N],–,–,–
74.27%,−1%,Cc1c(C(=O)O)c(O)cc2c1C(=O)c1c(O)c(C3O[C@H](CO)[C@@H](O)[C@H](O)[C@H]3O)c(O)c(O)c1C2=O (stereo in doubt) [Carmine],–,–,–
90.16%,15%,CNc1ccc2nc3ccc(=[N+](C)C)cc-3sc2c1 [Azure B],stabilization effects similar to that of methylene blue,can permeate lipid nanoparticles (LNP) and bind to encapsulated mRNA without altering the gross structure of the LNP,–
24.79%,−50%,CN(C)c1ccc(C(=C2C=CC(=[N+](C)C)C=C2)c2ccc(N(C)C)cc2)cc1 [Crystal Violet],–,–,–
89.14%,14%,Cc1cc2nc3cc(C)c(N)cc3[n+](-c3ccccc3)c2cc1N [Safranin O],stabilization effects similar to that of methylene blue,–,–
69.92%,−5%,CN(C)c1ccc2cc3ccc(N(C)C)cc3nc2c1 [Acridine Orange hydrochloride hydrate],–,–,–
–,–,"O=S([O-])S(=O)(=O)[O-].[K+].[K+] [KDS, potassium metabisulfite]",–,–,Neither KDS nor methionine showed any stabilization effect
77.56%,3%,CCN(CC)c1ccc2nc3c4ccccc4c(=O)cc-3oc2c1 [Nile Red],–,–,–
70.75%,−4%,CCN(CC)c1ccc2nc3c4ccccc4c(=N)cc-3oc2c1 [Nile Blue A],–,–,–
–,–,CSCC[C@H](N)C(=O)O [methionine],–,–,Neither KDS nor methionine showed any stabilization effect
59.34%,−16%,Cc1cc2nc3ccc(=[N+](C)C)cc-3[nH]c2cc1N [Neutral Red],–,–,–
78.00%,3%,O=C(O)c1ccccc1-c1c2cc([N+](=O)[O-])c(=O)c(Br)c-2oc2c(Br)c(O)c([N+](=O)[O-])cc12 [Eosin B],–,–,–

Compound,Main Peak Purity after 4 days at 40° C. (%) [1],Difference relative to No Dye [1],stabilization effect on mRNA in LNP [1],permeation of lipid nanoparticles and binding to encapsulated mRNA [2],stabilization effect on mRNA purity (mRNA-LNP)
Bromophenol Blue sodium salt,35.53%,−39%,–,–,–
Oc1cc2c(cc1O)[C@@H]1c3ccc(O)c(O)c3OC[C@]1(O)C2 [Hematoxylin],39.82%,−35%,–,–,–
"O=[N+]([O-])[O-].[Ag+] [Silver nitrate (0.1 N), Silver nitrate]",77.90%,3%,–,–,–
